pIC50: −log10 of the molar value.
Each compound was assayed against Nav 1.7 (Homo sapiens (Human), UniProt Q15858) (assay: in-vitro Nav 1.7 PX (IC50)). Settings: not given.
Type: cell-based

Nav 1.7, sequence (Q15858 whole entry): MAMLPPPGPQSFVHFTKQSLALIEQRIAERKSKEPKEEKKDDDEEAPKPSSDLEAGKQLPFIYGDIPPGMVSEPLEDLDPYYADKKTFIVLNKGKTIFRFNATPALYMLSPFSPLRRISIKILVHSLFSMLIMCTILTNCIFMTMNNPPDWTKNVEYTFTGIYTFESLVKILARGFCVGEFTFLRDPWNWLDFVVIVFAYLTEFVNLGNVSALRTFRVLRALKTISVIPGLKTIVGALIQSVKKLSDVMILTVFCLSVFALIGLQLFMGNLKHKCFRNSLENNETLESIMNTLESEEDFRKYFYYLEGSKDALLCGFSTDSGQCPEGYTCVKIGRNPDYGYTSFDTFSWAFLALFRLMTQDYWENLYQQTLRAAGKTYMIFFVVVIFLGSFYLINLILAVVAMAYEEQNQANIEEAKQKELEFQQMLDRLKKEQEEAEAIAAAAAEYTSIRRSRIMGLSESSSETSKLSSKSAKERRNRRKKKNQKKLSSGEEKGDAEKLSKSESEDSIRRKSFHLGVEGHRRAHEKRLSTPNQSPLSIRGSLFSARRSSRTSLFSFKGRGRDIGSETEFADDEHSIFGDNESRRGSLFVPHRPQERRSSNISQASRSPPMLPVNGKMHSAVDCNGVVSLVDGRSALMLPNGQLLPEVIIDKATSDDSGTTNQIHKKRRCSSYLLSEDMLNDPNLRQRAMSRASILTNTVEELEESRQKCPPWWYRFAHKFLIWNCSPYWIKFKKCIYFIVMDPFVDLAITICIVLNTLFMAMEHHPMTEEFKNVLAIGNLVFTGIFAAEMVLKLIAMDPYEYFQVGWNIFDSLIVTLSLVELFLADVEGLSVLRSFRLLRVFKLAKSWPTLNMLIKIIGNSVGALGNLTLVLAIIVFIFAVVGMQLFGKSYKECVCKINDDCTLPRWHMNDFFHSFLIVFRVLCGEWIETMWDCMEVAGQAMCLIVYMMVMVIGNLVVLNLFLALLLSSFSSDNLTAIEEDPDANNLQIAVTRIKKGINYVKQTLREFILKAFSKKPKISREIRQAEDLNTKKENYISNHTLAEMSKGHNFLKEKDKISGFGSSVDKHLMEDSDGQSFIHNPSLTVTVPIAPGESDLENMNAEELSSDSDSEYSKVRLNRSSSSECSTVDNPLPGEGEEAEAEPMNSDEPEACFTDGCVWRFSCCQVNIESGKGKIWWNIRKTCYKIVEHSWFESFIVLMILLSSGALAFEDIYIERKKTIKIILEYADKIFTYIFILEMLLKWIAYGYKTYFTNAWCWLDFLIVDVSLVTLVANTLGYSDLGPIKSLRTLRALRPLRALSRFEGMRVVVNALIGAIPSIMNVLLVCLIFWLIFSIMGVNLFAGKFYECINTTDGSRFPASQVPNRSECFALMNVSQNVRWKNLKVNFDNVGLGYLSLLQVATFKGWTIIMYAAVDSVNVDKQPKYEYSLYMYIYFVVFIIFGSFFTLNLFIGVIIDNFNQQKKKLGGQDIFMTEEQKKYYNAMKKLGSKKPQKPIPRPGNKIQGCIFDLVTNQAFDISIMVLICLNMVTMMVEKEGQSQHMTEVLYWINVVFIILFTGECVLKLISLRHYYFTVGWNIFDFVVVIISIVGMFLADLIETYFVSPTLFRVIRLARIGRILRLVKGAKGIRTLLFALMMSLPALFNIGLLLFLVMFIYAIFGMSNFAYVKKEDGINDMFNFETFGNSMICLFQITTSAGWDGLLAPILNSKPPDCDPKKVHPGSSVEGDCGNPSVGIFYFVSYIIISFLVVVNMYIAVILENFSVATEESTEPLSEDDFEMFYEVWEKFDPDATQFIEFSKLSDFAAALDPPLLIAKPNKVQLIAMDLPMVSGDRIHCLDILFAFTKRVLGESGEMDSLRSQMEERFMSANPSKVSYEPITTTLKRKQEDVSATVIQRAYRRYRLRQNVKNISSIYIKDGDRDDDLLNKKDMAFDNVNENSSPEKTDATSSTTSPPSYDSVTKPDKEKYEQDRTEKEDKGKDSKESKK

Row | Structure (SMILES) | pIC50
1 | CCOc1cc(-c2cccc(F)c2)c(F)cc1-n1c(=O)ccc2cc(S(=O)(=O)Nc3ccon3)ccc21 (atropisomer, axis not shown; (P)) [Example 388, (P)-1-(5-ethoxy-2,3′-difluoro-[1,1′-biphenyl]-4-yl)-N-(isoxazol-3-yl)-2-oxo-1,2-dihydroquinoline-6-sulfonamide] | 7.32
2 | COc1ccc(-c2cccc(C(F)(F)F)c2)cc1-n1c(=O)ccc2cc(S(=O)(=O)Nc3ccon3)ccc21 [Example 312, N-3-isoxazolyl-1-(4-methoxy-3′-(trifluoromethyl)-3-biphenylyl)-2-oxo-1,2-dihydro-6-quinolinesulfonamide] | 7.66

Same assay, conditions: in-vitro Nav 1.7 PX data

Row | Structure (SMILES) | pIC50
3 | COc1cc(-c2cccc(OC(C)C)c2)ccc1-n1c(=O)ccc2cc(S(=O)(=O)Nc3ncco3)ccc21 [Example 826, 1-(3-methoxy-3′-(1-methylethoxy)-4-biphenylyl)-N-1,3-oxazol-2-yl-2-oxo-1,2-dihydro-6-quinolinesulfonamide] | 6.85
4 | COc1cc(Cl)cc(-c2cc(OC)c(-n3c(=O)ccc4cc(S(=O)(=O)Nc5ncco5)ccc43)cc2F)c1 [Example 926, 1-(3′-chloro-2-fluoro-5,5′-dimethoxy-4-biphenylyl)-N-1,3-oxazol-2-yl-2-oxo-1,2-dihydro-6-quinolinesulfonamide] | 8.22
5 | COc1nc(OC2CCC2)c(Cl)cc1-n1c(=O)ccc2cc(S(=O)(=O)Nc3ccon3)ccc21 [Example 821, 1-(5-chloro-6-(cyclobutyloxy)-2-methoxy-3-pyridinyl)-N-3-isoxazolyl-2-oxo-1,2-dihydro-6-quinolinesulfonamide] | 5.33
6 | COCCCOc1nc(OC)c(-n2c(=O)ccc3cc(S(=O)(=O)Nc4ccon4)ccc32)cc1Cl [Example 831, 1-(5-chloro-2-methoxy-6-(3-methoxypropoxy)-3-pyridinyl)-N-3-isoxazolyl-2-oxo-1,2-dihydro-6-quinolinesulfonamide] | 5.42
7 | COc1cc(F)cc(-c2ccc(OC)c(-n3c(=O)ccc4cc(S(=O)(=O)Nc5ccon5)ccc43)c2)c1 [Example 838, 1-(3′-fluoro-4,5′-dimethoxy-3-biphenylyl)-N-3-isoxazolyl-2-oxo-1,2-dihydro-6-quinolinesulfonamide] | 7.16
8 | Cc1cc(-c2cc(C)c(-n3c(=O)ccc4cc(S(=O)(=O)Nc5ncccn5)ccc43)cc2F)ccc1Cl (atropisomer, axis not shown; (M)) [Example 650, (M)-1-(4′-chloro-2-fluoro-3′,5-dimethyl-4-biphenylyl)-2-oxo-N-2-pyrimidinyl-1,2-dihydro-6-quinolinesulfonamide] | 5.42
9 | COc1ccc(-c2ccc(Cl)cc2)cc1-n1c(=O)ccc2cc(S(=O)(=O)Nc3ccon3)ccc21 [Example 845, 1-(4′-chloro-4-methoxy-3-biphenylyl)-N-3-isoxazolyl-2-oxo-1,2-dihydro-6-quinolinesulfonamide] | 7.24
10 | COc1cc(-c2cccc(Cl)c2F)c(F)cc1-n1c(=O)ccc2cc(S(=O)(=O)Nc3ccon3)ccc21 [Example 703, 1-(3′-chloro-2,2′-difluoro-5-methoxy-4-biphenylyl)-N-3-isoxazolyl-2-oxo-1,2-dihydro-6-quinolinesulfonamide] | 8.30
11 | COc1cc(-c2ccnc(C(F)(F)F)c2)c(F)cc1-n1c(=O)ccc2cc(S(=O)(=O)Nc3ccon3)ccc21 [Example 762, 1-(5-fluoro-2-methoxy-4-(2-(trifluoromethyl)-4-pyridinyl)phenyl)-N-3-isoxazolyl-2-oxo-1,2-dihydro-6-quinolinesulfonamide] | 7.39
12 | COc1cc(-c2cccc(OC)c2Cl)ccc1-n1c(=O)ccc2cc(S(=O)(=O)Nc3ccon3)ccc21 [Example 782, 1-(2′-chloro-3,3′-dimethoxy-4-biphenylyl)-N-3-isoxazolyl-2-oxo-1,2-dihydro-6-quinolinesulfonamide] | 7.06
13 | COc1ccc(C)cc1-c1cc(OC)c(-n2c(=O)ccc3cc(S(=O)(=O)Nc4ccon4)ccc32)cc1F [Example 714, 1-(2-fluoro-2′,5-dimethoxy-5′-methyl-4-biphenylyl)-N-3-isoxazolyl-2-oxo-1,2-dihydro-6-quinolinesulfonamide] | 7.32
14 | COc1ccc(-c2cc(F)cc(F)c2)cc1-n1c(=O)ccc2cc(S(=O)(=O)Nc3ccon3)ccc21 [Example 865, 1-(3′,5′-difluoro-4-methoxy-3-biphenylyl)-N-3-isoxazolyl-2-oxo-1,2-dihydro-6-quinolinesulfonamide] | 7.28
15 | COc1ccc(-c2ccc(Cl)c(C)c2)cc1-n1c(=O)ccc2cc(S(=O)(=O)Nc3ccon3)ccc21 [Example 846, 1-(4′-chloro-4-methoxy-3′-methyl-3-biphenylyl)-N-3-isoxazolyl-2-oxo-1,2-dihydro-6-quinolinesulfonamide] | 7.60

Other lines, results leading:

Row | pIC50 | Structure (SMILES)
16 | 7.11 | COc1cc(-c2ccc(Cl)c(C)c2)c(F)cc1-n1c(=O)ccc2cc(S(=O)(=O)Nc3cscn3)ccc21 [Example 932, 1-(4′-chloro-2-fluoro-5-methoxy-3′-methyl-4-biphenylyl)-2-oxo-N-1,3-thiazol-4-yl-1,2-dihydro-6-quinolinesulfonamide]
17 | 7.28 | COc1cc(F)cc(-c2ccc(-n3c(=O)ccc4cc(S(=O)(=O)Nc5ncccn5)ccc43)c(OC)c2)c1 [Example 996, 1-(3′-fluoro-3,5′-dimethoxy-4-biphenylyl)-2-oxo-N-2-pyrimidinyl-1,2-dihydro-6-quinolinesulfonamide]
18 | 5.13 | COc1cc(C#CC(C)(C)O)c(F)cc1-n1c(=O)ccc2cc(S(=O)(=O)Nc3ccon3)ccc21 [Example 1139, 1-(5-fluoro-4-(3-hydroxy-3-methyl-1-butyn-1-yl)-2-methoxyphenyl)-N-3-isoxazolyl-2-oxo-1,2-dihydro-6-quinolinesulfonamide]
19 | 7.68 | COc1cc(-c2cccc(C)c2)c(F)cc1-n1c(=O)ccc2cc(S(=O)(=O)Nc3cccnn3)ccc21 [Example 1108, 1-(2-fluoro-5-methoxy-3′-methyl-4-biphenylyl)-2-oxo-N-3-pyridazinyl-1,2-dihydro-6-quinolinesulfonamide]
20 | 7.00 | COc1cc(-c2ccc(F)c(C)c2)c(F)cc1-n1c(=O)ccc2cc(S(=O)(=O)Nc3nnc(C)s3)ccc21 [Example 948, 1-(2,4′-difluoro-5-methoxy-3′-methyl-4-biphenylyl)-N-(5-methyl-1,3,4-thiadiazol-2-yl)-2-oxo-1,2-dihydro-6-quinolinesulfonamide]

Same assay, conditions: in-vitro Nav 1.7 PX data (PatchXpress)

Row | pIC50 | Structure (SMILES)
21 | 7.01 | COc1cc(C)ccc1-c1ccc(-n2c(=O)ccc3cc(S(=O)(=O)Nc4ccon4)ccc32)c(OC)c1 [Example 1063, 1-(2′,3-dimethoxy-4′-methyl-4-biphenylyl)-N-3-isoxazolyl-2-oxo-1,2-dihydro-6-quinolinesulfonamide]
22 | 7.21 | COc1ccc(-c2ccc(-n3c(=O)ccc4cc(S(=O)(=O)Nc5ccon5)ccc43)c(OC)c2)c(Cl)c1 [Example 1061, 1-(2′-chloro-3,4′-dimethoxy-4-biphenylyl)-N-3-isoxazolyl-2-oxo-1,2-dihydro-6-quinolinesulfonamide]

Same assay, conditions: in-vitro PatchXpress (PX)

Row | pIC50 | Structure (SMILES)
23 | 5.37 | COc1cc(-c2cccnc2)c(F)cc1-n1c(=O)ccc2cc(S(=O)(=O)Nc3ccon3)ccc21 [Example 404, 1-(5-fluoro-2-methoxy-4-(3-pyridinyl)phenyl)-N-3-isoxazolyl-2-oxo-1,2-dihydro-6-quinolinesulfonamide]

Reference: patent publication US9212182B2, “Bicyclic sulfonamide compounds as sodium channel inhibitors” (AMGEN INC., priority 2013, dated 2015)
